Reference: US20250270180A1, “MEK INHIBITORS AND THERAPEUTIC USES THEREOF” (Immuneering Corporation, priority 2020, published 2025)
Values after ≈ are worked out from the molar mass of the structure shown. Where two headings read alike, the source gives them in different places.

Key:
[1] = Microsome stability, human; type: in vitro ADME; settings: microsomes, 2 μM
[2] = Microsome stability, beagle dog; type: in vitro ADME; settings: microsomes, 2 μM
[3] = Plasma stability, human; type: in vitro ADME; settings: 2 μM
[4] = Plasma stability, beagle dog; type: in vitro ADME; settings: 2 μM
[5] = Plasma stability, CD-1 mouse; type: in vitro ADME; settings: 2 μM
[6] = Kinetic solubility (PBS pH 7.4; 4 hr); type: physicochemical
Procedure: The plates were shaken for 4 h at room temperature in an Eppendorf Thermomixer. After incubation, the plates were centrifuged for 20 minutes at 4680 rpm. From the supernatant, 150 uL was transferred to a new 96 well plate and 50 uL DMSO was added to ensure continued dissolution. Samples were measured on LC-UV at injection volumes of 1 and 8 uL. Peak areas were determined and compared to peak areas obtained using calibration curves of the test compounds in DMSO.

[7] = eLogD (lipophilicity; pH 7.4); type: physicochemical
Procedure: Test compounds were dissolved in DMSO at a concentration of 10 mM and further diluted with methanol: water 1:1. Samples were analyzed using gradient HPLC with three different isocratic mobile phases of 0.25% octanol in methanol (60, 65 and 70%) and 20 mM MOPS buffer (pH 7.4) with decylamine. If needed, (for low ElogDoct compounds) the isocratic mobile phases were adjusted to e.g. 40, 45 and 50% methanol. Peaks were detected using a diode array at absorbance 220-320 nm.
Capacity factors data (k′ _=(tr−_t0)/t0) obtained at various amounts of methanol were extrapolated to 0% methanol and k′w values are determined using a linear procedure. ElogDoct (7.4) is calculated using a series of reference standards with known Log D values. Each experiment was performed in triplicate.

[8] = test system: Colon-26 KRAS-G12D tumor; assay: Colon-26 model (KRAS G12D CRC): efficacy & safety; type: in vivo; settings: Colon-26 KRAS-G12D in Balb/c
Procedure: Female athymic BALB/c nude or BALB/c mice (Beijing Vital River Laboratory Animal Technology Co., Ltd.), approximately 8-10 weeks old were used in these studies. Animals were maintained in individually vented cages on a 12-h light-dark cycle. Food and water were available ad libitum. The Colon-26 tumor cells were maintained in vitro with RPMI1640 medium supplemented with 10% fetal bovine serum at 37° C. in an atmosphere of 5% CO2 in air. The cells in exponential growth phase were harvested and quantitated by cell counter before tumor inoculation. Each mouse was inoculated subcutaneously in the right flank region with Colon-26 tumor cells (5×10^5) in 0.1 mL of PBS. Randomization was started when the mean tumor size reached approximately 125 mm3. A total of 84 tumor-bearing mice were enrolled in the study and allocated into 7 treatment groups (12 mice per group). Also 12 non-tumor-bearing mice were assigned as un-treated group.
Animals were treated with either vehicle (10% DMSO/90% [20% SBE-β-CD in saline], pH 5) or vehicle containing compounds at the indicated doses by gavage (p.o.) twice daily for approximately 28-42 days (BID x 28-42 p.o.), or to ethical endpoints (BWL>20%; Median Tumor Volume (MTV)>2000 mm3; Individual TV>3000 mm3; clinical signs of unwell). Clinical signs of unwell was characterized, but not limited to the following. Severe dehydration, hypothermia, abnormal/labored respiration, lethargy, obvious pain, diarrhea, skin lesions, neurological symptoms, impaired mobility (not able to eat or drink) due to significant ascites and enlarged abdomen, astasia, continuous prone or lateral position, signs of muscular atrophy, paralytic gait, clonic convulsions, tonic convulsions, persistent bleeding from body orifice. Dosing as well as tumor and body weight measurements were conducted in a Laminar Flow Cabinet.
Animals were checked daily for morbidity and mortality. During routine monitoring, the animals were checked for any effects of tumor growth and treatments on behavior such as mobility, food and water consumption, body weight gain/loss (body weights were measured twice per week after randomization), eye/hair matting and any other abnormalities. Mortality and observed clinical signs were recorded for individual animals in detail.
Tumor volumes were measured twice per week after randomization in two dimensions using a caliper, and the volume was expressed in mm3 using the formula: V=(L×W×W)/2, where V is tumor volume, L is tumor length (the longest tumor dimension) and W is tumor width (the longest tumor dimension perpendicular to L). Results were presented as the median tumor volume, expressed in mm3+/−interquartile range, of each group. Tumor Growth Inhibition; TGI %=[1−(Ti/(Ci)]×100; where Ti as the median tumor volume of the treatment group on the measurement day, Ci as the median tumor volume of control group at the measurement day.

[9] = target: CYP450 2D6 (Homo sapiens, UniProt P10635); assay: CYP450 panel, 2D6; settings: 10 μM; substrate dextromethophan
CYP450 2D6, sequence (P10635 whole entry): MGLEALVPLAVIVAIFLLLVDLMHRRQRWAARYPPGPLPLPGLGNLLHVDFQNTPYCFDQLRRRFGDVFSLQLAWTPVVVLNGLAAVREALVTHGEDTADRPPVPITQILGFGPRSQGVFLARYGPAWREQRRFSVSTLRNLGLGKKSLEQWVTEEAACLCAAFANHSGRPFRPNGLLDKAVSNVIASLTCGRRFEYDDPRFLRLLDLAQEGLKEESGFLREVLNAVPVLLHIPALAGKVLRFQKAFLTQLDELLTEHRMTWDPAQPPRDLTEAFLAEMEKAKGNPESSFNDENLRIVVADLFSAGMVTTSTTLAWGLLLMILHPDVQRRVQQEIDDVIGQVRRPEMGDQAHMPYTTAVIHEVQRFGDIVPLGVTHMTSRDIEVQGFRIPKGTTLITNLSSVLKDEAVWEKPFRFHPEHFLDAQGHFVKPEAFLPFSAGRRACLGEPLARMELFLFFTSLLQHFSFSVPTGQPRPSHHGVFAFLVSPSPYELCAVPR

[10] = target: CYP450 3A4 (Homo sapiens, UniProt P08684); assay: CYP450 panel, 3A4; settings: 10 μM; for 3A4*: substrate midazolam; for 3A4^: substrate testosterone
CYP450 3A4, sequence (P08684 whole entry): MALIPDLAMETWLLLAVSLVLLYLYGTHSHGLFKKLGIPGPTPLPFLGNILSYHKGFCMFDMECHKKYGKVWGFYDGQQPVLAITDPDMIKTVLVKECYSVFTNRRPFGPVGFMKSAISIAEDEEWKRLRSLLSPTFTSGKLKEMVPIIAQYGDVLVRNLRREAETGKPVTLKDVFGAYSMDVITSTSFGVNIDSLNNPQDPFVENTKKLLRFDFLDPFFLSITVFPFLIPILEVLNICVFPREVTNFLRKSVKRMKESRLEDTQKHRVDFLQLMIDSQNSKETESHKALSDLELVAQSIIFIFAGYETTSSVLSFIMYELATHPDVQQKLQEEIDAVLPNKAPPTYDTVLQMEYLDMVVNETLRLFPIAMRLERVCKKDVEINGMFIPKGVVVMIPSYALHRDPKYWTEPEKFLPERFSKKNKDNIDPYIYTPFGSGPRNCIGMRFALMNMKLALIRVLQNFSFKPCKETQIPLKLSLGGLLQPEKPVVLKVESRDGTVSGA

[11] = target: CYP450 2C19 (Homo sapiens, UniProt P33261); assay: CYP450 panel, 2C19; settings: 10 μM; substrate mephenytoin
CYP450 2C19, sequence (P33261 whole entry): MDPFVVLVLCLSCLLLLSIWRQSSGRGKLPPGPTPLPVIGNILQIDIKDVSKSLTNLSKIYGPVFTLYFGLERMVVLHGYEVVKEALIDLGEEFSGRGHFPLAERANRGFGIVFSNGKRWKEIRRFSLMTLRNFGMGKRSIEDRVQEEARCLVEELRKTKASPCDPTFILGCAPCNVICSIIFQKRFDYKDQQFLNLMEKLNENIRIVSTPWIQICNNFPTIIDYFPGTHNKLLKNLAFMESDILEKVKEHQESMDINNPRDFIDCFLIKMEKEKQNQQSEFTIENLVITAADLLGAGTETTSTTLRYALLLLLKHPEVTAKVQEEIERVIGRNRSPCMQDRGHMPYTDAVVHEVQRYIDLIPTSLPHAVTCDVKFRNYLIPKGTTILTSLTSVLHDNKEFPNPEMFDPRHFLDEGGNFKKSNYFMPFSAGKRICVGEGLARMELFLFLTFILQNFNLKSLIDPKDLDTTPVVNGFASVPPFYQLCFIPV

[12] = Microsome stability, CD-1 mouse; settings: microsomes, 2 μM
[13] = Absorption & efflux: Caco-2 permeability; settings: human
[14] = 10 mM PBS buffer, aqueous buffer, kinetic from dmso stock

Compound | Human (% Reamining @1 hour) [1] [%] | Beagle Dog (% Reamining @1 hour) [2] [%] | Human (% Reamining @2 hour) [3] [%] | Beagle Dog (% Reamining @2 hour) [4] [%] | CD-1 Mouse (% Reamining @2 hour) [5] [%] | solubility kinetic at 4 h [6, 14] [µM] | eLogD (lipophilicity; pH = 7.4) [7] | 2D6* [9] | 3A4* [10] | 3A4^ [10] | 2C19* [11] | CD-1 Mouse (% Reamining @1 hour) [12] [%] | TGI (Day 10) ([8]; 50 mg/kg BID po) [%] | Papp A→B at 2 h, 10 μM [13] [×10⁻⁶ cm/s] | other results
CNS(=O)(=O)Nc1cccc(Cc2c(CN(C)C)c3ccc(OC(=O)N(C)C)cc3oc2=O)c1F [Compound 9] | 51.7 | 76.5 | 95.1 | 96.8 | 90.6 | > 80 | 3.0 | −3.7 | 16.3 | 26.8 | 8.2 | 54.3 | – | – | BWL (Day 14) ([8]; 150 mg/kg BID po): 0%; BWL (Day 17) ([8]; 150 mg/kg BID po): 0%; TGI (Day 10) ([8]; 150 mg/kg BID po): 93.9%; Papp B→A at 2 h, 10 μM [13]: 21 ×10⁻⁶ cm/s; efflux ratio at 2 h, 10 μM [13]: 1.62; Papp A→B at 2 h, 10 μM ([13]; Caco-2, A-B Permeability Ranking, 10 μM, 2 hrs): > 1 ×10⁻⁶ cm/s; Papp A→B at 2 h, 10 μM ([13]; Caco-2, Mean Papp A-B (10^−6 cm/s), 10 μM, 2 hrs): 13 ×10⁻⁶ cm/s
Cn1cnc2c(F)c(Nc3ccc(Br)cc3Cl)c(C(=O)NOCCO)cc21 [Reference 1, Selumetinib, reference compound] | 75.8 | 97.5 | 98.1 | 100.4 | 104.8 | – | 3.6 | 5.0 | 25.9 | 21.4 | 13.9 | 13.9 | 60.0 | > 1 | solubility kinetic at 4 h [6]: 36 µM (≈ 16.5 µg/mL); BWL (Day 14) ([8]; 50 mg/kg BID po): 0%; BWL (Day 17) ([8]; 50 mg/kg BID po): −2%
CNS(=O)(=O)Nc1nccc(Cc2c(C)c3ccc(Oc4ncccn4)cc3oc2=O)c1F [Reference 2, reference compound] | 107.1 | 111.6 | 91.1 | 99.8 | 92.9 | 36 (≈ 17 µg/mL) | 3.6 | 3.4 | 16.6 | 15.7 | −0.9 | 96.0 | 61.6 | > 1 | –
